From publication PMC6177617 (British Journal of Pharmacology, 2018)
Like-named read-outs stand apart in the source and are kept apart here.

Biological target: dopamine D2 receptor (Homo sapiens, UniProt P14416)
Format: binding
[1] = kPCA, room temperature, PPHT tracer, N = 2, n = 2

dopamine D2 receptor, sequence (P14416 whole entry): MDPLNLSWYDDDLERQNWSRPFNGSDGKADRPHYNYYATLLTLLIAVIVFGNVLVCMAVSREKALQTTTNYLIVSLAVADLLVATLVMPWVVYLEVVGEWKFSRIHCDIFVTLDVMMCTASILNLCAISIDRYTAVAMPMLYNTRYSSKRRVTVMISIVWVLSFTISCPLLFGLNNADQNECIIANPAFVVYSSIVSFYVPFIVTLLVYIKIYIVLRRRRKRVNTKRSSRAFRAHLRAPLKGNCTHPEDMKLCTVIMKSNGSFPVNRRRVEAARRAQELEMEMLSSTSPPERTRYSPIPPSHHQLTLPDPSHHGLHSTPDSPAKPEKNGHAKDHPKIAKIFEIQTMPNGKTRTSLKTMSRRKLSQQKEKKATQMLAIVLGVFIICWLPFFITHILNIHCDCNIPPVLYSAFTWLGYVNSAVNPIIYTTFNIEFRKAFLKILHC

Row | SMILES | kon [1/(M*s)] [1] | kon [1/(M*s)]
1 | Fc1ccc(CN2CCC(Nc3ccc(C(F)(F)F)nn3)CC2)cc1F [JNJ‐37822681] | 7.33E + 05 1/(M*s) | –
2 | O=C(CCCN1CCC(O)(c2ccc(Br)cc2)CC1)c1ccc(F)cc1 [Bromperidol] | – | 2.26E + 06 1/(M*s)
3 | FC(F)(F)c1nnc(N2CCNCC2)cc1-c1ccccc1 [JNJ‐39269646] | 4.53E + 06 1/(M*s) | –
